pEC50, pKi: −log10 of the molar value.
Tests used:
[1] = tested on: HT-22 cells; test: HT-22 cell viability during glutamate exposure (calcein AM assay); type: cell-based; conditions: for neuroprotective effect of prostaglandins against glutamate toxicity: added 24 h before glutamate (15 mM), viability 15 h later
Source text: Although not wanting to be bound by theory, the toxicity of glutamate in HT-22 (32) and C6 glioma (33) cell lines is mediated through oxidative stress. HT-22 cells lack ionotropic N-methyl-D-aspartate (“NMDA”) glutamate receptors, and the glutamate-induced cell death appears to occur via a slow onset oxidative stress (32,34,35). Glutamate blocks cystine uptake by inhibiting the glutamate/cystine antiporter in both HT-22 (32) and C6 glioma (33) cell lines. Since cysteine is required for glutathione (“GSH”) synthesis, the intracellular concentration of GSH decreases as a consequence. BSO depletes intracellular glutathione by inhibiting γ-glutamylcysteine synthetase, the rate-limiting enzyme in glutathione synthesis (33). […] Troglitazone further protected HT-22 (FIG. 14) and RGC-5 (FIG. 15) against BSO. The cell viability was taken at time points around about 14 to 24 hours post-insult time. In some of the experiments, the viability of cells was determined using 2.5 μM calcein AM assay in phosphate-buffered saline (PBS 1×). After 25 minutes of incubation, live cells were distinguished by the presence of intracellular esterase activity, which cleaves the calcein AM dye, producing a bright green fluorescence, as shown in FIG. 22. Viability was measured in Relative Fluorescent Units (“RFU”), and expressed as percentage of vehicle-treated control values.
15d-PGJ2 and two TZD's (e.g. troglitazone and ciglitazone) were tested for their ability to protect HT-22 cells against glutamate toxicity. […] HT-22 cells were treated with 15-dPGJ2 twenty-four hours prior to a glutamate insult (15 mM). […] The data of FIG. 24 was quantified using the calcein AM assay (see FIG. 22). Results are expressed in % survival of the control (non-glutamate-treated) cultures. DMSO received the vehicle only for 15d-PGJ2. Shown are mean±SEM for 6. The asterisk (“*”) indicates p<0.05 vs. respective control.
In order to conduct these experiments, the following compounds: PGA1; PGA2; PGJ2; Δ^12PGJ2; and 15d-PGJ2 were ordered from Biomol, Plymouth Meeting, Pa. HT-22, an immortalized mouse hippocampal cell line, C6 rat glioma, RGC-5 retinal ganglion cells were used. Cells were grown to confluence in DMEM media, and supplemented with 10% charcoal/dextran-treated fetal bovine serum (“FBS”), and […] gentamycin at 37° C. under 95% air, 5% CO2. HT-22, C6, and RGC-5 cells were plated at a density of 50,000, 35,000, and 10,000 cells/ml, respectively, in 96-well plates. Wells were pre-treated with cyclopentenone PGs at various times prior to being subjected to glutamate, hydrogen peroxide (H2O2), or BSO insults.
The WY-14643, Ciglitazone, Troglitazone, 9-cis retinoic acid, and 15d-PGJ2 compounds were purchased from Biomol (Plymouth Meeting, Pa.). L-165041 and L-783483 were kindly provided by Merck Laboratories. The cell lines used were HT-22, an immortalized mouse hippocampal cell line, and SK—N—SH, a human neuroblastoma cell line. The HT-22 cells were obtained from David Schubert (Salk Institute, San Diego, Calif.). The HT-22 line was originally selected from HT-4 cells based on glutamate sensitivity. HT-4 cells were immortalized from primary hippocampal neurons using a temperature-sensitive SV-40 T antigen (Morimoto and Koshland, 1990). SK—N—SH were obtained from ATCC (Manassas, Va.). HT-22 and SK—N—SH cells were grown to confluence in DMEM and RPMI-1640 media, respectively, and supplemented with 10% charcoal/dextran-treated fetal bovine serum (FBS), and 5 mg/ml gentamycin at 37° C. under 95% air, 5% CO2. HT-22 cells were plated at a density of 50,000 cells/ml (5,000 cells/well), and SK—N—SH were plated at a density of 120,000 to 150,000 cells/ml (12,000 to 15,000 cells/well) in 96-well plates. In most studies, wells were pre-treated with PPAR ligands over a wide dose range at various times prior to being subjected to either glutamate, hydrogen peroxide (H2O2), or serum deprivation insults. In some studies, the insults were applied prior to the addition of the PPAR ligand. […]

[2] = tested on: PPARγ; conditions: Berger et al., 1999; cited from earlier work
[3] = molecular target: T1, PPAR-β (Homo sapiens, UniProt Q03181); conditions: Berger et al., 1999; read-out: EC50 for activation of PPAR-β; cited from earlier work
T1 sequence (Q03181 1-441): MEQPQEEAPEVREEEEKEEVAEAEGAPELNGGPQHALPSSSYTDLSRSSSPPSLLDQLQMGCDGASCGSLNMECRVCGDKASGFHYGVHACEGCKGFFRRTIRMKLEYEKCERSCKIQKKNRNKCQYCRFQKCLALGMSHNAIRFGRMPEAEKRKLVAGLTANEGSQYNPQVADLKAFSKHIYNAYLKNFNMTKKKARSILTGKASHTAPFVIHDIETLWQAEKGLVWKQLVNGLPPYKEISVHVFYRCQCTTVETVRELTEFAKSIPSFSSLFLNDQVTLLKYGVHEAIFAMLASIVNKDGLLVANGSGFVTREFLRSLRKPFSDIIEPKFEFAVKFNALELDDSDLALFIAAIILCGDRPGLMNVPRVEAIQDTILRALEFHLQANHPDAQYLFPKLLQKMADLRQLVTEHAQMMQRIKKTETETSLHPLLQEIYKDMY

[4] = tested on: infarct after MCA occlusion; conditions: intraventricular, 660 ng, 30 min before MCA occlusion; Satoh et al.; cited from earlier work
[5] = tested on: PPAR-γ; conditions: cited from earlier work
[6] = tested on: PPAR alpha; conditions: Issemann and Green, 1990; read-out: EC50 for activation of PPAR alpha; cited from earlier work

CCCc1c(OCCCOc2ccc(OCC(=O)O)cc2)ccc(C(C)=O)c1O [L-165041]
effect on glutamate toxicity ([1]; 1 nM to 50 μM, pretreated 24 h, glutamate 20 mM): failed to affect glutamate toxicity | concentrations inducing weak activity of PPARγ [2]: > 51 µM | pEC50 [3]: ~6.30

COC(=O)CCCCC/C=C1/C(=O)C=C[C@H]1CCCCCCc1ccc(C)cc1 [NEPP-11]
decrease of infarct volume [4]: about 50%

CC1(COc2ccc(CC3SC(=O)NC3=O)cc2)CCCCC1 (stereo not shown) [ciglitazone, 5-[4-(1-methylcyclohexylmethoxy)benzyl]-thiazolidine-2,4-dione]
neuroprotective effects ([1]; concentrations up to 40 μM): did not have any neuroprotective effects | protection against glutamate toxicity ([1]; pretreatment at various concentrations): failed to protect | affinity for PPAR-γ ([5]; similar to that of 15d-PGJ2): low micromolar (μM) range

Cc1cccc(Nc2cc(Cl)nc(SCC(=O)O)n2)c1C [WY 14,643]
effect at the highest concentration on glutamate toxicity ([1]; highest concentration tested, glutamate 20 mM): enhanced glutamate toxicity | prevention of glutamate-induced cell death ([1]; pretreatment 24 h, 1 to 40 μM, glutamate 20 mM): failed to prevent glutamate-induced cell death | pEC50 [6]: ~5.82

CCCCC[C@H](O)/C=C/[C@H]1C=CC(=O)[C@@H]1CCCCCCC(=O)O [PGA1]
neuroprotective effect of prostaglandins against glutamate toxicity [1]: neuroprotective effects

CC(C)(c1ccc(OCC2CO2)cc1)c1ccc(OCC2CO2)cc1 (stereo not shown) [BADGE, Bisphenol diglycidyl ether]
toxicity in the cell model ([1]; at concentrations close to Ki (100 μM)): showed some toxicity | pKi ([5]; read-out: Ki value as PPARγ antagonist): 4.00

CC1=C(/C=C/C(C)=C\C=C\C(C)=C\C(=O)O)C(C)(C)CCC1 [9-cis retinoic acid]
effect of adding 9-cis retinoic acid on neuroprotection by 15d-PGJ2 ([1]; 1 μM 9-cis retinoic acid with 15d-PGJ2, glutamate exposure): did not alter the neuroprotective effects

CCCCC[C@H](O)/C=C/C1=C(C/C=C\CCCC(=O)O)C(=O)CC1 [PGB2]
neuroprotective effect of prostaglandins against glutamate toxicity [1]: did not display any neuroprotective effects

CCCCC[C@H](O)/C=C/[C@H]1C=CC(=O)[C@@H]1C/C=C\CCCC(=O)O [PGA2]
neuroprotective effect of prostaglandins against glutamate toxicity [1]: neuroprotective effects

Reference: patent US20040224995A1 (University of North Texas Health Science Center at Fort …, priority 2003, published 2004)
